Biological target: Epidermal growth factor receptor (Homo sapiens, UniProt P00533)
Assay: Inhibition of recombinant human GST-tagged EGFR cytoplasmic domain (668 to 1210 residues) expressed in baculovirus by Z'-LYTE assay

Chain of Epidermal growth factor receptor (P00533 whole entry, the tested form may be a part): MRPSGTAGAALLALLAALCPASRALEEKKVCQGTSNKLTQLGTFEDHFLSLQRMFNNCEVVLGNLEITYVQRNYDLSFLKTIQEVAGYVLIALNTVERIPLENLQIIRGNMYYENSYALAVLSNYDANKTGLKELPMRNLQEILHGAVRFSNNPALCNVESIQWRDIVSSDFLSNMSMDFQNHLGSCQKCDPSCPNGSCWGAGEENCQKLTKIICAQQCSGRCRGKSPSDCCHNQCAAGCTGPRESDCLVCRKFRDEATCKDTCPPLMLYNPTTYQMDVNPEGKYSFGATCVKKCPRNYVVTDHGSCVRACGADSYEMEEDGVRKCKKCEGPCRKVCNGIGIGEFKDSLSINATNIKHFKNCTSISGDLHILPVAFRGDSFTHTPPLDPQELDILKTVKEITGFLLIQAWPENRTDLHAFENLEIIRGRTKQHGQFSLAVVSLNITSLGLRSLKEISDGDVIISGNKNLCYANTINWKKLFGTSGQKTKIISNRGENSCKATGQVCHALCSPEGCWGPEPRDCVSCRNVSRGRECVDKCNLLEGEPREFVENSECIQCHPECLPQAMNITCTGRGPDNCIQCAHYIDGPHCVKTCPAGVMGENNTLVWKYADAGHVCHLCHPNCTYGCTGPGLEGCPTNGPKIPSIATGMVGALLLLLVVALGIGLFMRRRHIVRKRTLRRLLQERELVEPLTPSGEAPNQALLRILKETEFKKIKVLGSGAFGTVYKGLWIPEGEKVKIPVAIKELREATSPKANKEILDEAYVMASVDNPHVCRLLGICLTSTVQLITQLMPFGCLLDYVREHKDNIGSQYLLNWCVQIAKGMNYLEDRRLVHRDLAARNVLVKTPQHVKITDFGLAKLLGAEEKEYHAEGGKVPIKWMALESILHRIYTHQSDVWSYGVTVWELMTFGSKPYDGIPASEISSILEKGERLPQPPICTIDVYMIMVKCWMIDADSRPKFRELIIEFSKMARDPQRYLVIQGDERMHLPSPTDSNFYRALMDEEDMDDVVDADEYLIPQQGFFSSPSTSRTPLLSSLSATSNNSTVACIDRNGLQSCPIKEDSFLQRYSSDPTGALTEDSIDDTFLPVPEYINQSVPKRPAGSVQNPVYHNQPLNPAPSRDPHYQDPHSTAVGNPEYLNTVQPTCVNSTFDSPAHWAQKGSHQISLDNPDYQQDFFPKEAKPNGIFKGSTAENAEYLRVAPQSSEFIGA

| SMILES | IC50 [nM] |
| --- | --- |
| COc1ccccc1-c1cc2c(N[C@H](C)c3ccccc3)ncnc2o1 | 4 |
| COc1ccc(-c2cc3c(NC(CC(N)=O)c4ccccc4)ncnc3o2)cc1 (racemic) | 22 |
| COc1ccc(-c2cc3c(N[C@@H](C)c4ccccc4)ncnc3o2)cc1 | > 1000 |
| COc1ccc(-c2cc3c(N[C@H](C)c4ccccc4)ncnc3o2)cc1 | 5.3 |
| COc1cccc(-c2cc3c(N[C@H](C)c4ccccc4)ncnc3o2)c1 | 7 |
| CC[C@@H](Nc1ncnc2oc(-c3ccc(OC)cc3)cc12)c1ccccc1 | 22 |
| COc1ccc(-c2cc3c(NCc4ccccc4)ncnc3o2)cc1 | 74 |
| C[C@@H](Nc1ncnc2oc(-c3ccc(NCCN4CCOCC4)cc3)cc12)c1ccccc1 | 1.1 |
| C[C@@H](Nc1ncnc2oc(-c3ccc(O)cc3)cc12)c1ccccc1 | 1.5 |
| COC[C@@H](Nc1ncnc2oc(-c3ccccc3)cc12)c1ccccc1 | 28 |
| c1ccc(CNc2ncnc3oc(-c4ccccc4)cc23)cc1 | 93 |
| C[C@@H](Nc1ncnc2oc(-c3ccc(C#N)cc3)cc12)c1ccccc1 | 44 |
| COc1ccc(-c2cc3c(N[C@H](C)c4ccccc4F)ncnc3o2)cc1 | 24 |
| C[C@@H](Nc1ncnc2oc(-c3ccc(F)cc3)cc12)c1ccccc1 | 13 |
| COc1ccc(-c2cc3c(N[C@H](C)c4ccc(F)cc4)ncnc3o2)cc1 | 27 |

Next, values leading:

| IC50 [nM] | SMILES |
| --- | --- |
| 4 | COc1ccc(-c2cc3c(N[C@H](CCO)c4ccccc4)ncnc3o2)cc1 |
| 24 | COc1ccc(-c2cc3c(N[C@H](C)c4cccc(F)c4)ncnc3o2)cc1 |
| 11 | C[C@@H](Nc1ncnc2oc(-c3ccccc3)cc12)c1ccccc1 |
| 29 | C=Cc1ccc(-c2cc3c(N[C@H](C)c4ccccc4)ncnc3o2)cc1 |
| > 100 | COc1ccc(-c2cc3c(N[C@@H](C)CO)ncnc3o2)cc1 |
| 4.6 | C[C@@H](Nc1ncnc2oc(-c3cccc(O)c3)cc12)c1ccccc1 |
| 56 | C[C@@H](Nc1ncnc2oc(-c3ccc(Br)cc3)cc12)c1ccccc1 |
| > 100 | COc1ccc(-c2cc3c(N[C@H](C)C4CCCCC4)ncnc3o2)cc1 |

— ChEMBL document CHEMBL3856204, “Chiral 6-aryl-furo[2,3-d]pyrimidin-4-amines as EGFR inhibitors” (Eur J Med Chem, 2016)
